These results are taken from US5310930A, “Benzofuranylimidazole derivatives, a process for their preparation and therapeutical compositions containing the same” (priority 1991, dated 1994).

For assay [1] the following is noted: Indian J. Chem. 1979, 18B, 254; cited from earlier work.
For assay [2] the following is noted: Indian J. Chem. 1979, 18B, 254; cited from earlier work. This is another data set of the same source.
In assay [3] the target is imidazoline preferring receptor (IR). Put plainly: Displacement of 3H-idazoxan (4 nM) in the presence of (-)-adrenaline (IR affinity). It is filed as binding, rat. The conditions noted are these: for pKi: 3H-idazoxan (4 nM), (-)-adrenaline (10^-6 M), rat cerebral cortex, mean of 10 experiments; for Selectivity IR/α1: selectivity ratio for IR/alpha1 from Ki values; for Selectivity IR/α2: selectivity ratio for IR/alpha2 from Ki values. As for the experimental part:
(§1) Initial biological evaluation of alpha1 - and alpha2 -adrenoceptor and imidazoline preferring receptor (IR) affinities and selectivities in homogenized rat cerebral cortex were assessed by determining the Ki values of the compounds to displace ^3 H-prazosin ^3 H-clonidine as well as ^3 H-idazoxan in the presence of (-)-adrenaline according to the method of Olmos et al. (J. Neurochem. 1991, 57:1811-1813).
(§2) This in vitro model is particularly useful as an initial screening for studying the affinity and the selectivity of these compounds on the imidazoline receptors.

In another assay the target is T1, alpha2-adrenoceptor (Rattus norvegicus, UniProt P22909).
T1 sequence (P22909 1-465): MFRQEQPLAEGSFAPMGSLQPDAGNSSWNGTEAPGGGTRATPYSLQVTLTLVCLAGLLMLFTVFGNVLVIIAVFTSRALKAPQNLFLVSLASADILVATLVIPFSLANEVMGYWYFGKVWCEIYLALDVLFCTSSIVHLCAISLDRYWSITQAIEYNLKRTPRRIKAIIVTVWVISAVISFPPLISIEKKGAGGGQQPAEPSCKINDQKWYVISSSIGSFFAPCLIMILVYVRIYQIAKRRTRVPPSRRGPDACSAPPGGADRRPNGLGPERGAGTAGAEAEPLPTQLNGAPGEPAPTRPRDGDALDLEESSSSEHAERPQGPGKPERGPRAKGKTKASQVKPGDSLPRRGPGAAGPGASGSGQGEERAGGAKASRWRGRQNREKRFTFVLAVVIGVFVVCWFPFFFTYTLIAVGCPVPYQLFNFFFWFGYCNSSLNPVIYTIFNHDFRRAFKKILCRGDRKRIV
Put plainly: Displacement of 3H-clonidine (2 nM) (alpha2-adrenoceptor affinity). The assay is classed as binding.

Another assay deals with alpha1-adrenoceptor. In words: Displacement of 3H-prazosin (0.5 nM) (alpha1-adrenoceptor affinity). The assay is classed as binding. The conditions noted are these: rat cerebral cortex, mean of 10 experiments. Here is the method: as §1, §2
For another assay, the system named is rats. Put plainly: In vivo feeding behavior in rats (cumulative food intake after i.p. administration). Further details: species or system rat. As to conditions: for hyperphagic potency relative to idazoxan: 25 mg/kg i.p. versus idazoxan 10 mg/kg i.p.; for acute hyperphagic effect respect to the control group / cumulative food intake: rats; for acute hyperphagic effect respect to the control group: 1-4 h, P<0.05; for cumulative food intake: N=5. From the text:
At present, certain compounds of the invention (Examples 1,2 and 3) have shown an in vivo CNS functional activity, such as: feeding behavior in rats.

The mark [4] stands for this setting: 3H-clonidine (2 nM), rat cerebral cortex, mean of 10 experiments, read-out: Affinity (Ki) Alpha2.

pKi: −log10 of the molar value. Read-outs that look alike come from different tables or passages of the source.

On to `c1ccc2oc(C3=NCCN3)cc2c1`, for which, in assay [1], the antibacterial activity entry is reported as “without showing any noteworthy activity”. Moreover, the antifungal activity entry in assay [2] is on record as “without showing any noteworthy activity”.

Take `Cl.c1ccc2oc(-c3ncc[nH]3)cc2c1` [Example 1, 2-(benzofuran-2-yl)imidazole hydrochloride]: the negative logarithm of the Ki (pKi) (commonly the Ki on a negative log10 scale, so that one unit is a factor of ten) in assay [3] was 7.05; on alpha2-adrenoceptor, 4.00; at alpha1-adrenoceptor, 4.44. In addition, in assay [3], the “Selectivity IR/α1” value was found to be 410. Moreover, in assay [3], the “Selectivity IR/α2” value is recorded as 1 125. In addition, the “hyperphagic potency relative to idazoxan” value in the assay on rats was “lower in potency than those induced by idazoxan”. For the same molecule, in the assay with rats (25 mg/kg i.p.), the “acute hyperphagic effect respect to the control group” value is recorded as 7-10 fold. Also, the cumulative food intake with rats (25 mg/kg i.p., 1 h) came to 3.0 ± 2.0 g/kg body weight; with rats (25 mg/kg i.p., 2 h), 4.0 ± 2.1 g/kg body weight; in the assay with rats (25 mg/kg i.p., 4 h), 4.8 ± 2.0 g/kg body weight.

Turning to `Cl.Cn1ccnc1-c1cc2ccccc2o1` [Example 2, 1-methyl-2-(benzofuran-2-yl)imidazole hydrochloride], the values for the pKi (in assay [3]; on alpha2-adrenoceptor (setting [4]); on alpha1-adrenoceptor) were 7.82, 4.21 and 4.58, respectively. In addition, the “potency for the I2-imidazoline receptors relative to idazoxan” value in assay [3] (data derived from binding studies) was “equally as potent as idazoxan”. In addition, in assay [3] (data derived from binding studies (Table 1)), the “selectivity relative to idazoxan” value is “much more selective”. Moreover, the Selectivity IR/α1 in assay [3] was determined as 1740. In addition, the Selectivity IR/α2 in assay [3] came to 4140. Further, the “hyperphagic potency relative to idazoxan” value in the assay on rats is “lower in potency than those induced by idazoxan”. Moreover, the “acute hyperphagic effect respect to the control group” value in the assay on rats (25 mg/kg i.p.) is reported as 7-10 fold. Further, the cumulative food intake in the assay with rats (25 mg/kg i.p., 1 h) stood at 2.7 ± 1.5 g/kg body weight; with rats (25 mg/kg i.p., 2 h), 3.0 ± 1.5 g/kg body weight; with rats (25 mg/kg i.p., 4 h), 3.6 ± 1.4 g/kg body weight.

Consider `COc1ccc2cc(-c3ncc[nH]3)oc2c1.Cl` [Example 3, 2-(6-methoxybenzofuran-2-yl)imidazole hydrochloride], for which, in assay [3], the pKi is 6.82, the “Selectivity IR/α1” value is 118 and the “Selectivity IR/α2” value was 372. Moreover, on alpha2-adrenoceptor (setting [4]), the pKi was 4.25. Further, the pKi at alpha1-adrenoceptor is 4.75. The “hyperphagic potency relative to idazoxan” value in the assay with rats was “lower in potency than those induced by idazoxan”. In the assay with rats (25 mg/kg i.p.), the “acute hyperphagic effect respect to the control group” value is recorded as 7-10 fold.

For the molecule `Brc1ccc2oc(-c3ncc[nH]3)cc2c1.Cl` [Example 6, 2-(5-bromobenzofuran-2-yl)imidazole hydrochloride], in assay [3], the pKi was 6.93, the “Selectivity IR/α1” value is listed as 284 and the “Selectivity IR/α2” value amounted to 584. Further, the pKi on alpha2-adrenoceptor (setting [4]) is 4.17. In addition, on alpha1-adrenoceptor, the pKi is 4.48.

For the molecule `COc1ccc2oc(-c3ncc[nH]3)cc2c1.Cl` [Example 7, 2-(5-methoxybenzofuran-2-yl)imidazole hydrochloride], in assay [3], the pKi is 6.79, the “Selectivity IR/α1” value turned out to be 27 and the “Selectivity IR/α2” value is 605. The pKi at alpha2-adrenoceptor (setting [4]) is 4.01. The molecule also gave a pKi on alpha1-adrenoceptor of 5.36.

For `CCn1ccnc1-c1cc2ccc(OC)cc2o1.Cl` [Example 9, 1-ethyl-2-(6-methoxybenzofuran-2-yl)imidazole hydrochloride], in assay [3], the pKi was 6.91, the “Selectivity IR/α1” value was 184 and the “Selectivity IR/α2” value was 580. For the same molecule, the negative logarithm of the Ki (pKi) on alpha2-adrenoceptor (setting [4]) was 4.15. The molecule also gave a pKi on alpha1-adrenoceptor of 4.65.

In the case of `c1ccc2c(c1)OCC(C1=NCCN1)O2` (stereo not drawn) [Idazoxan, reference compound], the pKi in assay [3] is 7.85; on alpha1-adrenoceptor it was 7.04. The cumulative food intake amounted to 3.7 ± 1.2 g/kg body weight in the assay on rats (10 mg/kg i.p., 1 h); 5.6 ± 2.1 g/kg body weight in the assay on rats (10 mg/kg i.p., 2 h); 7.4 ± 2.3 g/kg body weight in the assay on rats (10 mg/kg i.p., 4 h).

On to `COC1(C2=NCCN2)COc2ccccc2O1` (stereo not drawn) [RX 821002, reference compound], for which, in assay [3], the pKi was 4.35 and the “Selectivity IR/α2” value was 0.00002. Moreover, at alpha2-adrenoceptor (setting [4]), the pKi was 9.15.
